Test results reported in patent US5955508A, “Method for the enhancement of lymphocyte activity against opportunistic microbial pathogens” (priority 1996, dated 1999).

Test system: K562 human tumor cells
Experiment: Natural killer cell cytotoxicity of human PBMC against K562 tumor cells in vitro
Assay type: cell-based
Protocol: Prior to conducting the above experiment, we examined the dose dependent effects of d-FEN on the ability of human PBMC obtained from five healthy volunteers (person Caucasians) to kill human K562 tumor cells in vitro. The potential cytotoxic enhancing effects of d-FEN and d-norFEN were compared using PBMC from two of the five human donors.
For assessment of immunological parameters of human PBMC, venous blood as aseptically drawn into sterile 10 ml tubes containing 20 U/ml preservative free heparin, diluted with an equal volume of Hank's Balanced Salt Solution (HBSS), layered over Lymphocyte Separation Medium (LSM, Bionetics, Kensington, Md.) and centrifuged at 1,000 ×g for 30 min. After centrifugation, the mononuclear cell layer was recovered from the interface and washed twice in HBSS and enumerated.
The K562 cell line originated from a chronic myelogenous leukemia patient and was obtained from Dr. T. Ellis (Director, Cellular Immunology Laboratory, LUMC). The K562 cells used for assessment of cytotoxic activity were maintained in long term cultures using Corning 25 cm^2 tissue culture flasks (Corning Glass Works, Corning, N.Y.) containing RPMI 1640 (Gibco Laboratories, Grand Island, N.Y.) supplemented with low LPS 10% fetal bovine serum (FBS; Gibco), 100 units/ml penicillin, 100 μg/ml streptomycin (Whittaker M. A. Bioproducts, Walkersville, Md.), 0.1 mM non-essential amino acids, and 2 mM L-glutamine (Gibco). This medium was used throughout, except where noted, and is referred to as "culture medium". The K562 cells were grown in suspension and were passaged three times per week by transfer of 10^6 K562 cells into a flask containing 10 ml of fresh culture medium. The K562 cells injected into the SCID mice were supplemented with fresh medium at a 1:3 dilution the day before administration. They were washed once in medium, pelleted by centrifugation at 500 ×g for 10 min., then resuspended at a concentration of 5×10^7. Subsequently, 0.2 ml (1×10^7 cells) of the cell suspension was injected (i.p.) into each SCID mouse. The K562 cells were administered to the animals four days after the injection of PBMC.
The K562 tumor cell lines maintained in vitro were washed once in culture medium, pelleted by centrifugation at 500×g for 10 min and resuspended in approximately 0.1 ml of culture medium. Subsequently, 100 μCi of [^51 Cr] (New England Nuclear, Boston, Mass.) was added to 1×10^5 cells in a final volume of 0.2 ml. The cells were incubated at 37° C. with 5% CO2 for 1 h with agitation every 10 min, then washed 3 times in HBSS, resuspended to 5×10^4 cells/ml in culture medium and 0.1 ml (5×10^3) aliquoted to each well of a 96 well round bottom assay plate (Corning Glass Works, Corning, N.Y.). Radiolabelled K562 was cultured for 4 h with lymphocytes at effector to target ratios ranging from 50:1 to 6:1. Following 4 h of culture the media was removed using a Skatron harvesting press (Skatron Inc., Sterling, Va.) and associated radioactivity determined. Maximum release was obtained by adding 0.05% Nonidet P-40 (Sigma Chemical Co., St. Louis, Mo.).
The results have been expressed as % cytotoxicity and calculated by the formula: % cytotoxicity=[(experimental DPM-minimum DPM)/(maximum DPM-minimum DPM)]×100.
All experimental means were calculated from triplicate values. Lytic units (LU) were calculated using a computer program written by David Coggins, FCRC, Frederick, Md.

CCN[C@@H](C)Cc1cccc(C(F)(F)F)c1 [d-FEN]
Percent Change in Cytotoxicity (Mean ± SEM) (0.25 ng/ml): 19 ± 2%
percent increase in cytotoxicity (0.25 ng/ml, DONOR #1): 22%
percent increase in cytotoxicity (0.25 ng/ml, DONOR #2): 19%
Percent Change in Cytotoxicity (Mean ± SEM) (0.50 ng/ml): 28 ± 4%
percent increase in cytotoxicity (0.50 ng/ml, DONOR #1): 36%
percent increase in cytotoxicity (0.50 ng/ml, DONOR #2): 21%
Percent Change in Cytotoxicity (Mean ± SEM) (1.00 ng/ml): 16 ± 3%
percent increase in cytotoxicity (1.00 ng/ml, DONOR #1): 23%
percent increase in cytotoxicity (1.00 ng/ml, DONOR #2): 17%
Percent Change in Cytotoxicity (Mean ± SEM) (4.00 ng/ml): 11 ± 5%
Percent Change in Cytotoxicity (Mean ± SEM) (20.00 ng/ml): -33 ± 5%
Percent Change in Cytotoxicity (Mean ± SEM) (50.00 ng/ml): -53 ± 6%
Percent Change in Cytotoxicity (Mean ± SEM) (100.00 ng/ml): -87 ± 2%
dose dependent effect on cytotoxicity in words (PBMC of five healthy volunteers, p<0.001): low doses of d-FEN enhanced whereas higher doses reduced cytotoxicity
d-FEN vs d-norFEN effect on cytotoxicity in words (PBMC of two donors): virtually identical effects
effect on capacity of human NK cells to kill K562, in words (conclusion): augments the capacity of human NK cells to kill the human tumor cell line, K562
